Reference: ChEMBL document CHEMBL1142574, “Identification of radical scavenging compounds in Rhaponticum carthamoides by means of LC-DAD-SPE-NMR” (J Nat Prod, 2005)

Assays:
[1] = tested on: Radical scavenging activity; assay: Antioxidant activity assessed as DPPH radical scavenging activity studied at DPPH to compound ratio of 5; type: functional; conditions: dose or concentration not given here
[2] = tested on: Radical scavenging activity; assay: Antioxidant activity assessed as DPPH radical scavenging activity studied at DPPH to compound ratio of 2; type: functional; conditions: dose or concentration not given here

| SMILES | inhibition [1] | inhibition [2] |
| --- | --- | --- |
| O=C(/C=C/c1ccc(O)c(O)c1)O[C@H](Cc1ccc(O)c(O)c1)C(=O)O | 89% | 98% |
| Cc1c(C)c2c(c(C)c1O)CCC(C)(C(=O)O)O2 (stereo unspecified) | 79% | 98% |
| CC(=O)OC[C@H]1O[C@@H](Oc2cc3oc(-c4ccc(O)cc4)c(O)c(=O)c3c(O)c2O)[C@H](O)[C@@H](O)[C@@H]1O | 36% | 75% |
